Reference: patent US20250205264A1, “METHODS OF USING AVERMECTIN COMPOSITIONS FOR THE TREATMENT OF SPASTICITY AND DOSING REGIMENS” (priority 2022, published 2025)

Key:
[1] = Pharmacokinetics of Ivermectin B1a in SD rat plasma after IV or oral administration; details: 2 mg/kg, fasting, male
Description: Thirty-six male Sprague Dawley rats were randomly assigned into four groups, with nine male rats in each group. All animals in all groups are fasted overnight prior to the experimental date.
Blood samples were collected from 6 of 9 animals per group at 0.5, 1, 2, 3, 4, 6, 8, 24, 72, 120, 168 hours post-dose.

[2] = Excipient compatibility study at 40° C./75% RH (HPLC Assay/Related Substances); assay type: physicochemical; details: for Chromatographic purity by HPLC (% area) / Total Impurities % (% adjusted area): 40° C./75% RH; for Total Impurities % (% adjusted area): excluding API impurities
Description: An excipient compatibility study was initiated with selected excipients ranging from oils to surfactants based on equilibrium solubility results (Table 2). […] After solutions were prepared using a hand-held homogenizer (Model IKAT10 Ultra-Turrax), each excipient sample was aliquoted in amber vials, approximately 10% water was added in each excipient aliquot, and bench scale gel stripe OET-004037 was also made and added in a separate set of aliquot samples at approximately 1:1 w/w.
All samples were stored at 40° C./75% relative humidity (RH) condition (Model: Lunaire environmental chamber) and tested by developmental reversed phase HPLC method for Assay/Related Substances at T=0, 2 weeks, and 1 month.

[3] = Ivermectin solubility determination in excipients
Description: The solubility assessments were performed by continually adding a known amount of the API into each individual excipient and letting the excipient reach solubility equilibrium via API saturation (visible solid observed). The experiments were conducted at ambient conditions (25° C.) and were left to mix on a stir plate at 500 RPM for at least 72 hours.

[4] = in Fractionated coconut oil, 10% water, T = 2 weeks
[5] = in Fractionated coconut oil, Control, T = 0
[6] = in Fractionated coconut oil, Control, T = 2 weeks
[7] = in Fractionated coconut oil, Gel Stripe (1:1 w/w), T = 2 weeks
[8] = in Labrasol ALF, 10% water, T = 1 months
[9] = in Labrasol ALF, 10% water, T = 2 weeks
[10] = in Labrasol ALF, Control, T = 0
[11] = in Labrasol ALF, Control, T = 1 months
[12] = in Labrasol ALF, Control, T = 2 weeks
[13] = in Labrasol ALF, Gel Stripe (1:1 w/w), T = 1 months
[14] = in Labrasol ALF, Gel Stripe (1:1 w/w), T = 2 weeks
[15] = in Maisine CC, 10% water, T = 1 months
[16] = in Maisine CC, 10% water, T = 2 weeks
[17] = in Maisine CC, Control, T = 1 months
[18] = in Maisine CC, Control, T = 2 weeks
[19] = in Maisine CC, Gel Stripe (1:1 w/w), T = 1 months
[20] = in Maisine CC, Gel Stripe (1:1 w/w), T = 2 weeks
[21] = in Masester E8120, 10% water, T = 1 months
[22] = in Masester E8120, 10% water, T = 2 weeks
[23] = in Masester E8120, Control, T = 0
[24] = in Masester E8120, Control, T = 1 months
[25] = in Masester E8120, Control, T = 2 weeks
[26] = in Masester E8120, Gel Stripe (1:1 w/w), T = 1 months
[27] = in Masester E8120, Gel Stripe (1:1 w/w), T = 2 weeks
[28] = in Oleic acid, 10% water, T = 2 weeks
[29] = in Oleic acid, Control, T = 2 weeks
[30] = in Oleic acid, Gel Stripe (1:1 w/w), T = 2 weeks
[31] = in PEG 400, 10% water, T = 2 weeks
[32] = in PEG 400, Control, T = 2 weeks
[33] = in PEG 400, Gel Stripe (1:1 w/w), T = 2 weeks
[34] = in Tween 80, 10% water, T = 1 months
[35] = in Tween 80, 10% water, T = 2 weeks
[36] = in Tween 80, Control, T = 1 months
[37] = in Tween 80, Control, T = 2 weeks
[38] = in Tween 80, Gel Stripe (1:1 w/w), T = 1 months
[39] = in Tween 80, Gel Stripe (1:1 w/w), T = 2 weeks
[40] = in Vitamin E TPGS, 10% water, T = 1 months
[41] = in Vitamin E TPGS, 10% water, T = 2 weeks
[42] = in Vitamin E TPGS, Control, T = 0
[43] = in Vitamin E TPGS, Control, T = 1 months
[44] = in Vitamin E TPGS, Control, T = 2 weeks
[45] = in Vitamin E TPGS, Gel Stripe (1:1 w/w), T = 1 months
[46] = in Vitamin E TPGS, Gel Stripe (1:1 w/w), T = 2 weeks

ivermectin
AUC(0-t) [1]: 8259.31 ± 1032.95 ng·h/mL
AUC(0-∞) [1]: 8273.53 ng·h/mL
Cmax [1]: 1722.67 ng/mL
MRT(0-t) [1]: 10.58 h
MRT(0-∞) [1]: 10.81 h
T1/2 [1]: 14.82 ± 0.72 h
Tmax [1]: 0.50 h
chemical compatibility with the API ([2]; PEG 400 as co-solvent): poor chemical compatibility
chemical compatibility with the API ([2]; Tween 80): less stability over time
chemical compatibility with the API ([2]; Vitamin E TPGS, compared with Tween 80 and Labrasol ALF): best chemical compatibility
Chromatographic purity by HPLC (% area) [2, 4]: 97.83 % area
Total Impurities % (% adjusted area) [2, 4]: <LOQ
Chromatographic purity by HPLC (% area) [2, 5]: 95.61 % area
Total Impurities % (% adjusted area) [2, 5]: <LOQ
Chromatographic purity by HPLC (% area) [2, 6]: 97.94 % area
Total Impurities % (% adjusted area) [2, 6]: <LOQ
Chromatographic purity by HPLC (% area) [2, 7]: 94.42 % area
Total Impurities % (% adjusted area) [2, 7]: 3.28 % adjusted area
Chromatographic purity by HPLC (% area) [2, 8]: 89.91 % area
Total Impurities % (% adjusted area) [2, 8]: 8.76 % adjusted area
Chromatographic purity by HPLC (% area) [2, 9]: 93.91 % area
Total Impurities % (% adjusted area) [2, 9]: 3.46 % adjusted area
Chromatographic purity by HPLC (% area) [2, 10]: 97.74 % area
Total Impurities % (% adjusted area) [2, 10]: <LOQ
Chromatographic purity by HPLC (% area) [2, 11]: 81.35 % area
Total Impurities % (% adjusted area) [2, 11]: 20.49 % adjusted area
Chromatographic purity by HPLC (% area) [2, 12]: 89.16 % area
Total Impurities % (% adjusted area) [2, 12]: 8.67 % adjusted area
Chromatographic purity by HPLC (% area) [2, 13]: 96.49 % area
Total Impurities % (% adjusted area) [2, 13]: 1.06 % adjusted area
Chromatographic purity by HPLC (% area) [2, 14]: 97.11 % area
Total Impurities % (% adjusted area) [2, 14]: 0.30 % adjusted area
Chromatographic purity by HPLC (% area) [2, 15]: 96.83 % area
Total Impurities % (% adjusted area) [2, 15]: 0.69 % adjusted area
Chromatographic purity by HPLC (% area) [2, 16]: 95.90 % area
Total Impurities % (% adjusted area) [2, 16]: 0.45 % adjusted area
Chromatographic purity by HPLC (% area) ([2]; in Maisine CC, Control, T = 0): 97.13 % area
Total Impurities % (% adjusted area) ([2]; in Maisine CC, Control, T = 0): 0.58 % adjusted area
Chromatographic purity by HPLC (% area) [2, 17]: 96.82 % area
Total Impurities % (% adjusted area) [2, 17]: 0.71 % adjusted area
Chromatographic purity by HPLC (% area) [2, 18]: 96.00 % area
Total Impurities % (% adjusted area) [2, 18]: 0.35 % adjusted area
Chromatographic purity by HPLC (% area) [2, 19]: 96.94 % area
Total Impurities % (% adjusted area) [2, 19]: 0.58 % adjusted area
Chromatographic purity by HPLC (% area) [2, 20]: 96.15 % area
Total Impurities % (% adjusted area) [2, 20]: 0.33 % adjusted area
Chromatographic purity by HPLC (% area) [2, 21]: 91.68 % area
Total Impurities % (% adjusted area) [2, 21]: 6.60 % adjusted area
Chromatographic purity by HPLC (% area) [2, 22]: 95.11 % area
Total Impurities % (% adjusted area) [2, 22]: 2.27 % adjusted area
Chromatographic purity by HPLC (% area) [2, 23]: 97.58 % area
Total Impurities % (% adjusted area) [2, 23]: 0.17 % adjusted area
Chromatographic purity by HPLC (% area) [2, 24]: 97.06 % area
Total Impurities % (% adjusted area) [2, 24]: 0.45 % adjusted area
Chromatographic purity by HPLC (% area) [2, 25]: 96.81 % area
Total Impurities % (% adjusted area) [2, 25]: 0.58 % adjusted area
Chromatographic purity by HPLC (% area) [2, 26]: 97.31 % area
Total Impurities % (% adjusted area) [2, 26]: 0.18 % adjusted area
Chromatographic purity by HPLC (% area) [2, 27]: 97.35 % area
Total Impurities % (% adjusted area) [2, 27]: 0.11 % adjusted area
Chromatographic purity by HPLC (% area) [2, 28]: 86.02 % area
Total Impurities % (% adjusted area) [2, 28]: 9.89 % adjusted area
Chromatographic purity by HPLC (% area) ([2]; in Oleic acid, Control, T = 0): 99.60 % area
Total Impurities % (% adjusted area) ([2]; in Oleic acid, Control, T = 0): <LOQ
Chromatographic purity by HPLC (% area) [2, 29]: 83.55 % area
Total Impurities % (% adjusted area) [2, 29]: 17.27 % adjusted area
Chromatographic purity by HPLC (% area) [2, 30]: 83.73 % area
Total Impurities % (% adjusted area) [2, 30]: 11.82 % adjusted area
Chromatographic purity by HPLC (% area) [2, 31]: 94.35 % area
Total Impurities % (% adjusted area) [2, 31]: 3.15 % adjusted area
Chromatographic purity by HPLC (% area) ([2]; in PEG 400, Control, T = 0): 97.58 % area
Total Impurities % (% adjusted area) ([2]; in PEG 400, Control, T = 0): 0.10 % adjusted area
Chromatographic purity by HPLC (% area) [2, 32]: 89.36 % area
Total Impurities % (% adjusted area) [2, 32]: 8.54 % adjusted area
Chromatographic purity by HPLC (% area) [2, 33]: 96.92 % area
Total Impurities % (% adjusted area) [2, 33]: 0.50 % adjusted area
Chromatographic purity by HPLC (% area) [2, 34]: 91.18 % area
Total Impurities % (% adjusted area) [2, 34]: 6.94 % adjusted area
Chromatographic purity by HPLC (% area) [2, 35]: 93.02 % area
Total Impurities % (% adjusted area) [2, 35]: 3.53 % adjusted area
Chromatographic purity by HPLC (% area) ([2]; in Tween 80, Control, T = 0): 97.53 % area
Total Impurities % (% adjusted area) ([2]; in Tween 80, Control, T = 0): 0.16 % adjusted area
Chromatographic purity by HPLC (% area) [2, 36]: 88.45 % area
Total Impurities % (% adjusted area) [2, 36]: 10.55 % adjusted area
Chromatographic purity by HPLC (% area) [2, 37]: 91.87 % area
Total Impurities % (% adjusted area) [2, 37]: 4.86 % adjusted area
Chromatographic purity by HPLC (% area) [2, 38]: 93.51 % area
Total Impurities % (% adjusted area) [2, 38]: 4.22 % adjusted area
Chromatographic purity by HPLC (% area) [2, 39]: 93.97 % area
Total Impurities % (% adjusted area) [2, 39]: 2.43 % adjusted area
Chromatographic purity by HPLC (% area) [2, 40]: 97.46 % area
Total Impurities % (% adjusted area) [2, 40]: <LOQ
Chromatographic purity by HPLC (% area) [2, 41]: 96.99 % area
Total Impurities % (% adjusted area) [2, 41]: 0.42 % adjusted area
Chromatographic purity by HPLC (% area) [2, 42]: 97.74 % area
Total Impurities % (% adjusted area) [2, 42]: <LOQ
Chromatographic purity by HPLC (% area) [2, 43]: 97.37 % area
Total Impurities % (% adjusted area) [2, 43]: 0.11 % adjusted area
Chromatographic purity by HPLC (% area) [2, 44]: 97.43 % area
Total Impurities % (% adjusted area) [2, 44]: <LOQ
Chromatographic purity by HPLC (% area) [2, 45]: 97.74 % area
Total Impurities % (% adjusted area) [2, 45]: <LOQ
Chromatographic purity by HPLC (% area) [2, 46]: 97.50 % area
Total Impurities % (% adjusted area) [2, 46]: <LOQ
chemical compatibility with the API ([2]; oily vehicles Maisine CC, fractionated coconut oil, and oleic acid): good chemical compatibility
Solubility ([3]; in Capryol 90, 25° C.): 150.92 mg/g
Solubility ([3]; in Fractionated Coconut oil, 25° C.): 16.55 mg/g
Solubility ([3]; in Glycerin, 25° C.): <0.1 mg/g
Solubility ([3]; in Kolliphor EL, 25° C.): 95.85 mg/g
Solubility ([3]; in Labrafil M 2125 CS, 25° C.): 35.32 mg/g
Solubility ([3]; in Labrasol ALF, 25° C.): 126.36 mg/g
Solubility ([3]; in LauroglycolTM FCC, 25° C.): 71.96 mg/g
Solubility ([3]; in Maisine CC, 25° C.): 60.17 mg/g
Solubility ([3]; in Masester E8120, 25° C.): 164.06 mg/g
Solubility ([3]; in Medium Chain Triglyceride, 25° C.): 16.49 mg/g
Solubility ([3]; in Oleic acid, 25° C.): 48.58 mg/g
Solubility ([3]; in Olive oil, 25° C.): 4.71 mg/g
Solubility ([3]; in PEG 400, 25° C.): 112.92 mg/g
Solubility ([3]; in Propylene glycol, 25° C.): 25.61 mg/g
Solubility ([3]; in Soybean oil, 25° C.): 6.72 mg/g
Solubility ([3]; in Span 20, 25° C.): 97.66 mg/g
Solubility ([3]; in Span 80, 25° C.): 54.04 mg/g
Solubility ([3]; in Triacetin, 25° C.): 58.75 mg/g
Solubility ([3]; in Tween 80, 25° C.): 88.26 mg/g
Solubility ([3]; in Vitamin E TPGS, table title 25° C., text b171: conducted at 40° C.): 82.98 mg/g
